Consider six compounds from BindingDB's records for patent US11168088 (2021).

The target of test [1] is Cyclin-dependent kinase 2 (Homo sapiens, UniProt P24941).
Test [2] has as its target Cyclin-dependent kinase 6/G1/S-specific cyclin-D1 (Homo sapiens, UniProt Q00534).

pIC50: −log10 of the molar value.

Chain of Cyclin-dependent kinase 6/G1/S-specific cyclin-D1 (P24385 whole entry): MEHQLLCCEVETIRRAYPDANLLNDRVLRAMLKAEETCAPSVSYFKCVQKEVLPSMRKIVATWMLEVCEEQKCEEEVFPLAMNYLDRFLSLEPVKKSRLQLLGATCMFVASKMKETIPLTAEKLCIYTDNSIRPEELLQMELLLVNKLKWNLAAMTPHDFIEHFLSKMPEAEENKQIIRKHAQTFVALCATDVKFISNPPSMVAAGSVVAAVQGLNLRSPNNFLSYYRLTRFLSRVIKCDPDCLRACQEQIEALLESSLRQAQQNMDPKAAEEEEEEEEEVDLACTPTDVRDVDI
Chain of Cyclin-dependent kinase 6/G1/S-specific cyclin-D1 (Q00534 whole entry): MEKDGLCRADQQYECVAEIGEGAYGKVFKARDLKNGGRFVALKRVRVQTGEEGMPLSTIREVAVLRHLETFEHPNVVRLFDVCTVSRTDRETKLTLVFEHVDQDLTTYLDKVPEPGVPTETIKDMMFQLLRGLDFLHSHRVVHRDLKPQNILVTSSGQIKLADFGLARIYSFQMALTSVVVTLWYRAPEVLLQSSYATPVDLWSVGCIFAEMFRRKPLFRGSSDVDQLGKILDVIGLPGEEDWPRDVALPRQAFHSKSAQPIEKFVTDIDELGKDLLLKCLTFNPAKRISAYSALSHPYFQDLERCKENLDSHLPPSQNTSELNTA

In test [1], `Cc1c2c(nn1C)CCc1cnc(Nc3ccc(CN4CCN(C)CC4)cn3)nc1-2` [US11168088, Compound D1] had a pIC50 of 7.64.

For the compound `CCN1CCN(Cc2ccc(Nc3ncc4c(n3)-c3c(nn(CC)c3C(C)C)CC4)nc2)CC1` [US11168088, Compound P-2], the pIC50 in test [1] is 6.05.

Consider `CCc1nc2c(n1C(C)C)-c1nc(Nc3ccc(CN4CCN(CC)CC4)cn3)ncc1C2` [US11168088, Compound P-5], for which, in test [1], the pIC50 was 5.52.

For the compound `CCN1CCN(c2ccc(Nc3ncc4c(n3)-c3c(cnn3C(C)C)CC4)nc2)CC1` [US11168088, Compound P-12], the pIC50 in test [1] was 5.10.

Compound `CC(C)c1nn(C)c2c1-c1nc(Nc3ccc(N4CCNCC4)cn3)ncc1C2` [US11168088, Compound P-16] had a pIC50 in test [2] of 7.28.

As for `CC(C)n1ncc2c1-c1nc(Nc3ccc(N4CCNCC4)cn3)ncc1CC2` [US11168088, Compound P-25], the negative-log IC50 (pIC50) in test [1] is 5.07.

As usually defined, the pIC50 is the IC50 on a negative log10 scale, so that one unit is a factor of ten.
